# Legend:
# KB = experiment: Cytotoxicity against human KB cells after 72 hrs by MTT assay; type: functional, cell-based
# L1210 = experiment: Cytotoxicity against mouse L1210 cells after 72 hrs by MTT assay; type: functional, cell-based; conditions: L1210, 72 h
SMILES,IC50 (KB),IC50 (L1210)
CC1(C)[C@@H](Cl)[C@H](O)C[C@]2(C)C=C(/C=C/N=C(Cl)Cl)CC[C@@H]12 [RETICULIDIN A],0.41 µg/mL,0.59 µg/mL
CC1(C)[C@@H](Cl)[C@@H](O)C[C@]2(C)CC(/C=C/N=C(Cl)Cl)=CC[C@@H]12 [RETICULIDIN B],0.42 µg/mL,0.11 µg/mL
